Source: PubChem BioAssay AID1259407 (Chemical Carcinogenesis Research Information System (CCRIS), 2018)
Calls of active or inactive are those of the source. How the calls were made is not given here.

Tested on: CCRIS mutagenicity, Ames/micronucleus/aberration tests
Assay: CCRIS mutagenicity studies

COS(C)(=O)=O
mutagenic call (End Point: IN VITRO MICRONUCLEUS, Test System: CHINESE HAMSTER OVARY CELLS, Metabolic Activation: NONE): active; positive | mutagenic call (End Point: IN VITRO MICRONUCLEUS, Test System: CHL/IU CELLS, Metabolic Activation: NONE): active; positive | mutagenic call (End Point: IN VITRO MICRONUCLEUS, Test System: CHO CELLS, Metabolic Activation: RAT, LIVER, S-9, AROCLOR 1254): active; positive | mutagenic call (End Point: IN VITRO MICRONUCLEUS, Test System: HUMAN FIBROBLASTS VH25 CELLS, Metabolic Activation: NONE): active; positive | mutagenic call (End Point: IN VITRO MICRONUCLEUS, Test System: MOUSE LYMPHOMA L5178Y CELLS, Metabolic Activation: NONE): active; positive | mutagenic call (End Point: IN VIVO MICRONUCLEUS, Test System: BONE MARROW POLYCHROMATIC ERYTHROCYTES, Species: MOUSE, Strain/Sex: SWISS/FEMALE, Route: IP): active; positive | mutagenic call (End Point: IN VIVO MICRONUCLEUS, Test System: HEPATOCYTES, Species: RAT, Strain/Sex: FISHER 344 OR SD/MALE, Route: ORAL OR IP): inactive; negative | mutagenic call (End Point: IN VIVO MICRONUCLEUS, Test System: PERIPHERAL BLOOD RETICULOCYTES, Species: RAT, Strain/Sex: FISHER 344 OR SD/MALE, Route: ORAL OR IP): active; positive | mutagenic call (End Point: In vitro micronucleus, Test System: Chinese hamster ovary (CHO) cells, Metabolic Activation: None): active; positive (lycopene (10, 25 and 50 um) significantly reduced the number of micron | mutagenic call (End Point: In vitro micronucleus, Test System: Chinese hamster ovary (CHO-WBL) cells, Metabolic Activation: None): active; positive (p<0.01) | mutagenic call (Test System: AMES SALMONELLA TYPHIMURIUM, Strain/Indicator: TA97, Metabolic Activation: NONE, Method: STANDARD PLATE): active; positive | mutagenic call (Test System: AMES SALMONELLA TYPHIMURIUM, Strain/Indicator: TA97, Metabolic Activation: RAT, LIVER, S-9, AROCLOR 1254, Method: STANDARD PLATE): inactive; negative | mutagenic call (Test System: AMES SALMONELLA TYPHIMURIUM, Strain/Indicator: TA98, Metabolic Activation: NONE, Method: STANDARD PLATE): inactive; negative | mutagenic call (Test System: AMES SALMONELLA TYPHIMURIUM, Strain/Indicator: TA98, Metabolic Activation: RAT, LIVER, S-9, AROCLOR 1254, Method: STANDARD PLATE): inactive; negative | mutagenic call (Test System: AMES SALMONELLA TYPHIMURIUM, Strain/Indicator: TA100, Metabolic Activation: NONE, Method: STANDARD PLATE): active; positive | mutagenic call (Test System: AMES SALMONELLA TYPHIMURIUM, Strain/Indicator: TA100, Metabolic Activation: RAT, LIVER, S-9, AROCLOR 1254, Method: STANDARD PLATE): inactive; negative | mutagenic call (Test System: AMES SALMONELLA TYPHIMURIUM, Strain/Indicator: TA1535, Metabolic Activation: NONE, Method: STANDARD PLATE): active; positive | mutagenic call (Test System: AMES SALMONELLA TYPHIMURIUM, Strain/Indicator: YG7100, Metabolic Activation: NONE, Method: PREINCUBATION): inactive; negative | mutagenic call (Test System: AMES SALMONELLA TYPHIMURIUM, Strain/Indicator: YG7104, Metabolic Activation: NONE, Method: PREINCUBATION): active; positive | mutagenic call (Test System: AMES SALMONELLA TYPHIMURIUM, Strain/Indicator: YG7108, Metabolic Activation: NONE, Method: PREINCUBATION): active; positive | mutagenic call (Test System: AMES SALMONELLA TYPHIMURIUM, Strain/Indicator: YG7112, Metabolic Activation: NONE, Method: PREINCUBATION): active; positive | mutagenic call (Test System: AMES SALMONELLA TYPHIMURIUM, Strain/Indicator: YG7113, Metabolic Activation: NONE, Method: PREINCUBATION): active; positive | mutagenic call (Test System: AMES SALMONELLA TYPHIMURIUM, Strain/Indicator: YG7119, Metabolic Activation: NONE, Method: PREINCUBATION): active; positive | mutagenic call (Test System: CHINESE HAMSTER OVARY, Strain/Indicator: CHO-K1-BH4 (HGPRT)/6-THIOGUANINE, Metabolic Activation: NONE, Method: SUSPENSION/PLATE): active; positive | mutagenic call (Test System: CHINESE HAMSTER OVARY, Strain/Indicator: CHO-K1-BH4 (HGPRT), Metabolic Activation: NONE, Method: MONOLAYER): active; positive | mutagenic call (Test System: CHINESE HAMSTER OVARY, Strain/Indicator: CHO-K1-BH4 (HGPRT), Metabolic Activation: NONE, Method: SUSPENSION/PLATE): active; positive | mutagenic call (Test System: CHINESE HAMSTER V-79, Strain/Indicator: V-79/6-THIOGUANINE, Metabolic Activation: NONE, Method: FLASK ASSAY): active; positive | mutagenic call (Test System: CHINESE HAMSTER V-79, Strain/Indicator: V-79/6-THIOGUANINE, Metabolic Activation: NONE, Method: STANDARD PLATE): active; positive | mutagenic call (Test System: CHINESE HAMSTER V-79, Strain/Indicator: V-79/6-THIOGUANINE, Metabolic Activation: NONE, Method: SUSPENSION/PLATE): active; positive | mutagenic call (Test System: CHINESE HAMSTER V-79, Strain/Indicator: V-79/8-AZAGUANINE, Metabolic Activation: NONE, Method: STANDARD PLATE): active; positive | mutagenic call (Test System: CHINESE HAMSTER V-79, Strain/Indicator: V-79/OUABAIN, Metabolic Activation: NONE, Method: STANDARD PLATE): active; positive | mutagenic call (Test System: CHINESE HAMSTER V-79, Strain/Indicator: V-79/OUABAIN, Metabolic Activation: NONE, Method: SUSPENSION/PLATE): inactive; negative | mutagenic call (Test System: CHO/HGPRT, Strain/Indicator: CHO-K1-BH4, Metabolic Activation: NONE, Method: STANDARD PLATE): active; positive | mutagenic call (Test System: E. COLI, Strain/Indicator: TK701 (PKM101), Metabolic Activation: NONE, Method: STANDARD PLATE): active; positive | mutagenic call (Test System: E. COLI, Strain/Indicator: TK701, Metabolic Activation: NONE, Method: STANDARD PLATE): active; positive | mutagenic call (Test System: E. COLI, Strain/Indicator: TK702 (PKM101), Metabolic Activation: NONE, Method: STANDARD PLATE): active; positive | mutagenic call (Test System: E. COLI, Strain/Indicator: TK702, Metabolic Activation: NONE, Method: STANDARD PLATE): inactive; negative | mutagenic call (Test System: E. COLI, Strain/Indicator: WP2, Metabolic Activation: NONE, Method: FLUCTUATION): active; positive | mutagenic call (Test System: E. COLI, Strain/Indicator: WP2, Metabolic Activation: NONE, Method: PREINCUBATION): active; positive | mutagenic call (Test System: E. COLI, Strain/Indicator: WP2, Metabolic Activation: NONE, Method: STANDARD PLATE): active; positive | mutagenic call (Test System: E. COLI, Strain/Indicator: WP2 UVRA, Metabolic Activation: HAMSTER, LIVER, S-9, AROCLOR 1254, Method: STANDARD PLATE): active; positive | mutagenic call (Test System: E. COLI, Strain/Indicator: WP2 UVRA, Metabolic Activation: HAMSTER, LIVER, S-9, Method: STANDARD PLATE): active; positive | mutagenic call (Test System: E. COLI, Strain/Indicator: WP2 UVRA, Metabolic Activation: MOUSE, LIVER, S-9, AROCLOR 1254, Method: STANDARD PLATE): active; positive | mutagenic call (Test System: E. COLI, Strain/Indicator: WP2 UVRA, Metabolic Activation: MOUSE, LIVER, S-9, Method: STANDARD PLATE): active; positive | mutagenic call (Test System: E. COLI, Strain/Indicator: WP2 UVRA, Metabolic Activation: NONE, Method: FLUCTUATION): active; positive | mutagenic call (Test System: E. COLI, Strain/Indicator: WP2 UVRA, Metabolic Activation: NONE, Method: PREINCUBATION): active; positive | mutagenic call (Test System: E. COLI, Strain/Indicator: WP2 UVRA, Metabolic Activation: RAT, LIVER, S-9, AROCLOR 1254, Method: STANDARD PLATE): active; positive | mutagenic call (Test System: E. COLI, Strain/Indicator: WP2 UVRA, Metabolic Activation: RAT, LIVER, S-9, Method: STANDARD PLATE): active; positive | mutagenic call (Test System: MOUSE LYMPHOMA, Strain/Indicator: L5178Y (TK+/TK-), Metabolic Activation: NONE, Method: SUSPENSION/PLATE): active; positive | mutagenic call (Test System: MOUSE LYMPHOMA, Strain/Indicator: L5178Y (TK+/TK-), Metabolic Activation: RAT, LIVER, S-9, AROCLOR 1254, Method: SUSPENSION/PLATE): active; positive | mutagenic call (Test System: UDS HUMAN CELLS, Strain/Indicator: THY INCORP (NON-S-PHASE), Metabolic Activation: NONE, Method: AUTORADIOGRAPHY): active; positive | mutagenic call (Test System: UDS HUMAN CELLS, Strain/Indicator: THY INCORP (NON-S-PHASE), Metabolic Activation: NONE, Method: LIQUID SCINTILLATION COUNTING): active; positive | mutagenic call (Test System: UDS HUMAN KERATINOCYTES, Strain/Indicator: THY INCORP, Metabolic Activation: NONE, Method: AUTORADIOGRAPHY): active; positive | mutagenic call (Test System: UDS HUMAN LYMPHOCYTES, Strain/Indicator: THY INCORP (NON-S-PHASE), Metabolic Activation: NONE, Method: LIQUID SCINTILLATION COUNTING): active; positive | mutagenic call (Test System: UDS MONKEY HEPATOCYTES, Strain/Indicator: THY INCORP, Metabolic Activation: AROCLOR 1254, Method: AUTORADIOGRAPHY): active; positive | mutagenic call (Test System: UDS MONKEY HEPATOCYTES, Strain/Indicator: THY INCORP, Metabolic Activation: NONE, Method: AUTORADIOGRAPHY): active; positive | mutagenic call (Test System: UDS RAT HEPATOCYTES, Strain/Indicator: BROMODEOXYURIDINE INCORP, Metabolic Activation: NONE, Method: FLOW CYTOMETRIC ANALYSIS): active; positive | mutagenic call (Test System: UDS RAT HEPATOCYTES, Strain/Indicator: THY INCORP, Metabolic Activation: NONE, Method: AUTORADIOGRAPHY): active; positive | mutagenic call (Test System: UDS RAT PACHYTENE SPERMATOCYTES, Strain/Indicator: THY INCORP, Metabolic Activation: NONE, Method: LIQUID SCINTILLATION COUNTING): active; positive | mutagenic call (Test System: UDS RODENT CELLS, Strain/Indicator: THY INCORP (NON-S-PHASE), Metabolic Activation: NONE, Method: AUTORADIOGRAPHY): active; positive | mutagenic call (Test System: UDS RODENT CELLS, Strain/Indicator: THY INCORP (NON-S-PHASE), Metabolic Activation: NONE, Method: LIQUID SCINTILLATION COUNTING): active; positive | mutagenic call (Test System: UDS RODENT HEPATOCYTES, Strain/Indicator: THY INCORP (NON-S-PHASE), Method: AUTORADIOGRAPHY): active; positive | mutagenic call (Test System: UDS RODENT HEPATOCYTES, Strain/Indicator: THY INCORP (NON-S-PHASE), Method: LIQUID SCINTILLATION COUNTING): active; positive | mutagenic call (Test System: UDS RODENT PRIMARY CELLS, Strain/Indicator: THY INCORP (NON-S-PHASE), Metabolic Activation: NONE, Method: LIQUID SCINTILLATION COUNTING): active; positive | mutagenic call (Test System: UDS, Strain/Indicator: HEPG2/THYMIDINE INCORPORATION, Metabolic Activation: NONE, Method: AUTORADIOGRAPHY): active; positive
